Laboratory results taken from patent US8623911B2, “Boron-containing small molecules as anti-protozoal agent” (Anacor Pharmaceuticals, Inc., priority 2010, dated 2014).

Experiments:
[1] = test system: LAB 110 Eatro strain of T. b. brucei; experiment: Acute Murine Model A [Murine Stage 1 HAT]; assay type: in vivo
Method: Female Swiss Webster mice were inoculated with 250,000 parasites of the LAB 110 Eatro strain of T. b. brucei. 24 hrs post-infection, treatment was initiated by administration of a compound of the invention BID for 4 days with 20 mg/kg/dose (40 mg/kg/day) intraperitoneally (IP) or orally (PO), 5 mg/kg BID or 10 mg/kg BID orally (PO). 3 mice per group were treated with a particular compound of the invention. Mice were checked for parasitemia weekly by microscopic examination of smears prepared from tail vein blood. Animals remaining parasite free for more than 30 days beyond the end of the treatment period were considered cured. Control untreated animals typically succumbed to the infection within 4-5 days following i.p. inoculation with parasites. Mice were monitored for 30 days for survival. Pentamidine at 2 mg/kg IP was used as the positive control. After 10 days, 0% of the untreated mice were parasite free. After 10 days, 67% of mice treated PO with 10 mg/kg BID of N-(1-Hydroxy-3,4-dihydro-1H-benzo[c][1,2]oxaborinin-7-yl)-4-methoxy-benzamide (M19) were parasite free. After 30 days, 100% of mice treated PO with 10 mg/kg BID of 4-fluoro-N-(1-hydroxy-3,4-dihydro-1H-benzo[c][1,2]oxaborinin-7-yl)-2-trifluoromethyl-benzamide (M1) were parasite free.

[2] = test system: TREU 667 strain of T. b. brucei; experiment: Chronic CNS Model [Murine Stage 2 HAT]; assay type: in vivo; settings: 50 mg/kg PO BID for 7 days, starting at Day 21 post-infection
Method: Mice were infected with 10,000 parasites of the TREU 667 strain of T. b. brucei. Twenty one days post-infection mice were treated with a dose of between 6 and 100 mg/kg of a compound of the invention, either BID or QD for 7 days intraperitoneally (IP) or orally (PO). Positive control mice were treated with Diminazene (10 mg/kg, IP) on Day 4 post-infection. Negative control mice were treated with Diminazene (10 mg/kg, PO) on Day 21. Since Diminazene is not able to penetrate the CNS, mice treated at Day 21 are not able to cure the infection. Starting 1 week after treatment, mice were checked for parasitemia by microscopic examination of smears prepared from tail vein blood. Parasite positive animals were immediately removed from the cages and euthanized. Animals were considered to be cured of a CNS infection if they were aparasitemic for at least 180 days after the end of the treatment period.

**Q.** O=C(Nc1ccc2c(c1)B(O)OCC2)c1ccc(F)cc1C(F)(F)F [M1, 4-Fluoro-N-(1-hydroxy-3,4-dihydro-1H-benzo[c][1,2]oxaborinin-7-yl)-2-trifluoromethyl-benzamide] was tested. Which “mice parasite free after 30 days” value ([1]; female Swiss Webster mice, PO 10 mg/kg BID for 4 days, after 30 days) did it give?
**A.** Its value is 100%.

**Q.** What about the “Mean Survival Days” value ([1]; mice infected with T. b. brucei, 10 mg/kg, BID, orally, 4 days) of the same compound?
**A.** The value was 30 days.

**Q.** What about the “mice with absence of blood parasites through Day 180” value [2] of the same compound?
**A.** The value was 100%.
